Results reported in US20230017045A1, “PYRIDINE AND PYRIMIDINE CARBOXYLATE HERBICIDES AND METHODS OF USE THEREOF” (Dow AgroSciences LLC, priority 2017, published 2023).
Where two headings read alike, the source gives them in different places.

Test system: test plant species
Test: Post-emergent herbicidal activity test (greenhouse, foliar spray, visual growth reduction)
Type: in vivo
Conditions: post-emergence, 336 h, 140 g ai/ha
Description: Post-emergent Test: Seeds or nutlets of the desired test plant species were planted in Sun Gro Metro-Mix® 360 planting mixture, which typically has a pH of 6.0 to 6.8 and an organic matter content of about 30 percent, in plastic pots with a surface area of 64 square centimeters. In some aspects, to ensure good germination and healthy plants, a fungicide treatment and/or other chemical or physical treatment was applied. The plants were grown for 7-21 d in a greenhouse with an approximate 15 h photoperiod which was maintained at 23-29° C. during the day and 22-28° C. during the night. Nutrients and water were added on a regular basis and supplemental lighting was provided with overhead metal halide 1000-Watt lamps as necessary. Plants were used for testing when they reached the first or second true leaf stage. A weighed amount, determined by the highest rate to be tested, of each test compound was placed in a 25 mL glass vial and was dissolved in 4 mL of a 97:3 v/v mixture of acetone and DMSO to obtain concentrated stock solutions. […] The concentrated stock solutions obtained were diluted with 20 mL of an aqueous mixture containing acetone, water, isopropyl alcohol, DMSO, […] crop oil concentrate, and X-77 surfactant in a 48.5:39:10:1.5:1.0:0.02 v/v ratio to obtain spray solutions containing the application rate. Compound requirements are based upon a 12 mL application volume at a rate of 187 liters per hectare (L/ha). Formulated compounds were applied to the plant material with an overhead Mandel track sprayer equipped with […] nozzles calibrated to deliver 187 L/ha over an application area of 0.64 square meters at a spray height of 18 inches (43 cm) above the average plant canopy height. Control plants were sprayed in the same manner with the solvent blank. The treated plants and control plants were placed in a greenhouse as described above and watered by subirrigation to prevent wash-off of the test compounds. After 14 d, the condition of the test plants as compared with that of the nontreated and control plants was determined visually and scored on a scale of 0 to 100 percent where 0 corresponds to no injury and 100 corresponds to complete control. In the reporting of the results, Table A: Percent Growth Reduction Conversion Table was used.

[1] = ECHCG: barnyardgrass (Echinochloa crus-galli), 14 days after application, read-out: Visual Growth Reduction (%) 14 Days After Application, ECHCG
[2] = IPOHE: ivy-leaf morning glory (Ipomoea hederacea), 14 days after application, read-out: Visual Growth Reduction (%) 14 Days After Application, IPOHE
[3] = KCHSC: kochia (Bassia scoparia), 14 days after application, read-out: Visual Growth Reduction (%) 14 Days After Application, KCHSC
[4] = ORYSA: rice (Oryza sativa), 14 days after application, read-out: Visual Growth Reduction (%) 14 Days After Application, ORYSA
[5] = SETFA: giant foxtail (Setaria faberi), 14 days after application, read-out: Visual Growth Reduction (%) 14 Days After Application, SETFA
[6] = SORVU: grain sorghum (Sorghum vulgare), 14 days after application, read-out: Visual Growth Reduction (%) 14 Days After Application, SORVU
[7] = STEME: common chickweed (Stellaria media), 14 days after application, read-out: Visual Growth Reduction (%) 14 Days After Application, STEME
[8] = TRZAS: wheat, spring (Triticum aestivum), 14 days after application, read-out: Visual Growth Reduction (%) 14 Days After Application, TRZAS
[9] = ALOMY: blackgrass (Alopecurus myosuroides), 14 days after application, read-out: Visual Growth Reduction (%) 14 Days After Application, ALOMY
[10] = AMARE: redroot pigweed (Amaranthus retroflexus), 14 days after application, read-out: Visual Growth Reduction (%) 14 Days After Application, AMARE
[11] = AVEFA: wild oat (Avena fatua), 14 days after application, read-out: Visual Growth Reduction (%) 14 Days After Application, AVEFA
[12] = CHEAL: lambsquarters (Chenopodium album), 14 days after application, read-out: Visual Growth Reduction (%) 14 Days After Application, CHEAL
[13] = CIRAR: canada thistle (Cirsium arvense), 14 days after application, read-out: Visual Growth Reduction (%) 14 Days After Application, CIRAR
[14] = CYPES: yellow nutsedge (Cyperus esculentus), 14 days after application, read-out: Visual Growth Reduction (%) 14 Days After Application, CYPES
[15] = DIGSA: crabgrass (Digitaria sanguinalis), 14 days after application, read-out: Visual Growth Reduction (%) 14 Days After Application, DIGSA

| Structure (SMILES) | pest or weed control at 140 g/ha [1] [%] | pest or weed control at 140 g/ha [2] [%] | pest or weed control at 140 g/ha [3] [%] | pest or weed control at 140 g/ha [4] [%] | pest or weed control at 140 g/ha [5] [%] | pest or weed control at 140 g/ha [6] [%] | pest or weed control at 140 g/ha [7] [%] | pest or weed control at 140 g/ha [8] [%] | pest or weed control at 140 g/ha [9] [%] | pest or weed control at 140 g/ha [10] [%] | pest or weed control at 140 g/ha [11] [%] | pest or weed control at 140 g/ha [12] [%] | pest or weed control at 140 g/ha [13] [%] | pest or weed control at 140 g/ha [14] [%] | pest or weed control at 140 g/ha [15] [%] | further results |
| --- | --- | --- | --- | --- | --- | --- | --- | --- | --- | --- | --- | --- | --- | --- | --- | --- |
| COC(=O)c1nc(-c2ccc(C3CC3)c(F)c2)ccc1Cl [F287, Methyl 3-chloro-6-(4-cyclopropyl-3-fluorophenyl) picolinate] | 0 to 29 | 60 to 74 | 0 to 29 | 0 to 29 | 0 to 29 | 0 to 29 | 0 to 29 | 0 to 29 | – | – | – | – | – | – | – | pest or weed control at 140 g/ha (blackgrass (Alopecurus myosuroides), 14 Days After Application, read-out: Visual Growth Reduction (%) ALOMY): 0 to 29%; pest or weed control at 140 g/ha (canada thistle (Cirsium arvense), 14 Days After Application, read-out: Visual Growth Reduction (%) CIRAR): 0 to 29%; pest or weed control at 140 g/ha (crabgrass (Digitaria sanguinalis), 14 Days After Application, read-out: Visual Growth Reduction (%) DIGSA): 0 to 29%; pest or weed control at 140 g/ha (lambsquarters (Chenopodium album), 14 Days After Application, read-out: Visual Growth Reduction (%) CHEAL): 0 to 29%; pest or weed control at 140 g/ha (redroot pigweed (Amaranthus retroflexus), 14 Days After Application, read-out: Visual Growth Reduction (%) AMARE): 0 to 29%; pest or weed control at 140 g/ha (wild oat (Avena fatua), 14 Days After Application, read-out: Visual Growth Reduction (%) AVEFA): 0 to 29%; pest or weed control at 140 g/ha (yellow nutsedge (Cyperus esculentus), 14 Days After Application, read-out: Visual Growth Reduction (%) CYPES): 0 to 29% |
| COC(=O)c1nc(-c2ccc3c(c2F)OCO3)ccc1Cl [F85, Methyl 3-chloro-6-(4-fluorobenzo[d][1,3]dioxol-5-yl)picolinate] | 30 to 44 | 0 to 29 | 45 to 59 | 0 to 29 | 0 to 29 | 0 to 29 | 0 to 29 | 0 to 29 | 0 to 29 | 0 to 29 | 0 to 29 | 75 to 84 | 0 to 29 | 0 to 29 | 0 to 29 | – |
| COC(=O)c1nc(-c2ccc(C(C)=O)cc2Cl)ccc1Cl [F26, methyl 6-(4-acetyl-2-chlorophenyl)-3-chloropicolinate] | 0 to 29 | 0 to 29 | 0 to 29 | 0 to 29 | 0 to 29 | 0 to 29 | 0 to 29 | 0 to 29 | 0 to 29 | 0 to 29 | 0 to 29 | 0 to 29 | 0 to 29 | 0 to 29 | 0 to 29 | – |
| COC(=O)c1nc(-c2ccc(C(F)(F)F)nc2F)ccc1Cl [F167, Methyl 5-chloro-2′-fluoro-6′-(trifluoromethyl)-[2,3′-bipyridine]-6-carboxylate] | 0 to 29 | 60 to 74 | 30 to 44 | 0 to 29 | 60 to 74 | 75 to 84 | 0 to 29 | 0 to 29 | 0 to 29 | 60 to 74 | 0 to 29 | 75 to 84 | 0 to 29 | 0 to 29 | – | – |
| COC(=O)c1nc(-c2ccc(Br)cc2Cl)ccc1Cl [F27, Methyl 6-(4-bromo-2-chlorophenyl)-3-chloropicolinate] | 0 to 29 | 85 to 94 | 30 to 44 | 0 to 29 | 0 to 29 | 60 to 74 | 0 to 29 | 0 to 29 | 0 to 29 | 60 to 74 | 0 to 29 | 45 to 59 | 75 to 84 | 0 to 29 | 60 to 74 | – |
| COC(=O)c1nc(-c2cc3c(cc2Cl)OC(F)(F)O3)ccc1Cl [F124, Methyl 3-chloro-6-(6-chloro-2,2-difluorobenzo[d] [1,3]dioxol-5-yl)picolinate] | 75 to 84 | 95 to 100 | 45 to 59 | 0 to 29 | 30 to 44 | 75 to 84 | 0 to 29 | 60 to 74 | 45 to 59 | 75 to 84 | 30 to 44 | 85 to 94 | 75 to 84 | 0 to 29 | 85 to 94 | – |
| COC(=O)c1nc(-c2cc(F)c(C)cc2Cl)ccc1Cl [F46, Methyl 3-chloro-6-(2-chloro-5-fluoro-4-methylphenyl) picolinate] | 0 to 29 | – | 0 to 29 | 0 to 29 | 0 to 29 | 0 to 29 | 0 to 29 | 0 to 29 | 0 to 29 | 0 to 29 | 0 to 29 | 60 to 74 | 0 to 29 | 0 to 29 | 0 to 29 | – |
| COC(=O)c1nc(-c2ccc(C(F)(F)F)cc2Cl)cc(OC)c1Cl [F39, Methyl 3-chloro-6-(trifluoromethyl) phenyl)-4-methoxypicolinate] | 0 to 29 | 0 to 29 | 0 to 29 | 0 to 29 | 0 to 29 | 30 to 44 | 0 to 29 | 0 to 29 | 0 to 29 | 0 to 29 | 0 to 29 | 0 to 29 | 0 to 29 | 0 to 29 | 0 to 29 | – |
